Assay type in all cases: cell-based
Test [1] deals with human bone marrow-derived MSC. The test can be described thus: MSC: evaluation of fat differentiation induction (Oil Red O). As to conditions: MSC after 3-passage subculture with 20 ng/ml additive, 14 days induction. As for the experimental part: A third passage was performed in a CellBIND(R) 24-well transparent multi-well plate (Corning, C/N: 3337), and then at a time of reaching 80% to 90% confluence, medium exchange was performed in MesenCult Stem Cell Adipogenic Differentiation Medium (PromoCell, C/N: C-28016) which is a medium for differentiation induction. Furthermore, for the cells as a negative control, D-MEM (10% FBS or 20% FBS) was used for the medium exchange. The medium exchange was carried out every 2 to 4 days.
After 14 days from seeding, a 4% paraformaldehyde/phosphate buffer solution was added thereto at 500 μL/well, and the cells were left to stand for 2 hours or longer. After the immobilization, purified water was added thereto at 500 μL/well. An Oil Red stock liquid (Cosmo Bio Co., Ltd., C/N: AK09F) and purified water were mixed at a ratio of 6:4, and the mixture was left to stand at room temperature for 10 to 15 minutes. Thereafter, the filtrate was filtered through a membrane filter having a pore size of 0.5 to 1.0 μm, and the filtrate was used as an Oil Red O liquid. 500 μL of the Oil Red O liquid was added to each well and the mixture was left to stand at room temperature for 15 minutes. […] 100 μL of the eluate was transferred to a 96-well plate and the absorbance at 520 nm was measured. […]

The subject of test [2] is mouse fibroblast cell line NIH/3T3. Kind of test: Promotion of fibroblast growth by VHH (homodimer), cell growth assay. As to conditions: NIH/3T3, serum-free, 2 days, 2-fold dilution series, 4-parameter fit; read-out: EC50 of the growth of cultured fibroblasts. As for the experimental part: A mouse fibroblast cell line NIH/3T3 was used as a fibroblast. A mouse fibroblast cell line NIH/3T3 was obtained from ECACC through a domestic agent, subjected to extended culture, then cryopreserved at −80° C. using CellBanker1 plus (manufactured by ZENOAQ), and used. […]
The cell growth assay for bFGF was performed according to the following procedure. […] The plate was further left to stand for 8 minutes, and then the luminescence in each well was measured with a Synergy HTX plate reader (manufactured by BioTek) with a sensitivity set (Gain) of 200 and a measurement time of 1 s/well. […]
The measurement was performed at three points at each concentration of the test substance, and the conditions were set such that for the measurement at a single concentration, 100 ng/mL of bFGF was set as a positive control and a condition of no addition was set as a negative control. […] The EC50 measurement data were fitted to 4-parameter fit according to an ordinary method by control software attached to a plate reader, and an EC50 value was calculated.

The test system of test [3] is human bone marrow-derived MSC. Kind of test: MSC culture: evaluation of MSC markers by flow cytometry. As to conditions: MSC fourth passage, 10% or 20% FBS; for CD90-expressing (positive) cells: over the concentrations tested. As for the experimental part:
On Day 5 after the initial seeding, D-PBS was added to the cells and removed by suction. 500 μL of TrypLE Express was added to each well and the mixture was left to stand in a CO2 incubator for 5 to 10 minutes. The cells were observed under a microscope, and in a case where it was possible to confirm that the cells had changed in morphology, a medium was added thereto, and the cells were recovered in a PP tube by pipetting, and centrifuged (300× g, 5 minutes). After the centrifugation, the supernatant was removed by suction, an appropriate amount of 1% BSA/PBS was added to the pellet, and the mixture was pipetted to form a suspension.
A part of the suspension was collected and the number of cells was evaluated with a cell counter. Dilution was performed with 1% of BSA/PBS, so that the concentration was 0.6 to 1.0× 10^6 cells/mL. 50 μL of the mixture was dispensed into a 2 mL tube, so that the concentration was 3 to 5×10^4 cells/tube.
Equal amounts of the suspension subjected to the cell counter and the antibody solution adjusted above were mixed, and the mixture was left to stand on ice for 30 minutes or longer with light shielded. 1% of BSA/PBS was added thereto, the mixture was centrifuged (400 to 600×g, 5 minutes), and then the supernatant was removed by suction. Then, 300 to 500 μL of 1% BSA/PBS was added thereto, and the pipetted sample was subjected to flow cytometric analysis using an Attune NxT Flow Cytometer (Thermo Fisher Scientific, Inc.).

The text below walks through data of US20240279618A1, “RECEPTOR TYROSINE KINASE AGONIST, COMPOSITION FOR CELL CULTURE MEDIUM, AND […] MAINTENANCE COMPOSITION” (SEKISUI CHEMICAL CO., LTD., priority 2021, published 2024).

With “FGF2: fibroblast growth factor (basic), human, recombinant (154aa), positive control; SEQ ID NO: 58 [reference compound]”, the “differentiation into the fat cell line (Oil Red O)” value in test [1] was “Differentiation was similarly recognized”. The EC50 in test [2] was 5.1 nM. Also, the CD90-expressing cells entry in test [3] ("at ng/mL" (figure not given)) is given as “less than 95%”. Also, in test [3], the “CD90-expressing (positive) cells” value is given as “decreased in inverse proportion to the concentration”.

B1: #1-L4-#1: dimer of VHH #1 with linker L4 (GSEGKSSGSGSESKST), SEQ ID NO: 23 (protein)
VHH: QLQLVESGGGSVQAGGSLRLSCAASRSLSRFNVWTWYRQAPVKQRELVASITKSGDTNYAESVKGRFIISRDDDKNTVYLQMNNLKSEDTGIYYCAGSYYSGSYLYPSPGGFSVWGQGTQVTVSSGSEGKSSGSGSESKSTQLQLVESGGGSVQAGGSLRLSCAASRSLSRFNVWTWYRQAPVKQRELVASITKSGDTNYAESVKGRFIISRDDDKNTVYLQMNNLKSEDTGIYYCAGSYYSGSYLYPSPGGFSVWGQGTQVTVSS
modifications: #1-L4-#1
Take B1: the “differentiation into the fat cell line (Oil Red O)” value in test [1] was “Differentiation was similarly recognized”. For the same molecule, in test [2], the concentration for a half-maximal effect (EC50) amounted to 11.6 nM. The “CD90-expressing (positive) cells” value in test [3] is ≥ 97%.
